Test results reported in US7148231B2, “[6,7-Bis(2-methoxy-ethoxy)-quinazolin-4-yl]-(3-ethynyl-phenyl)amine hydrochloride polymorph” (Hoffmann-La Roche Inc., priority 2003, dated 2006).
Like-named read-outs stand apart in the source and are kept apart here.

Assays:
[1] = Solubility after 20 min equilibration at 20° C.; type: physicochemical; conditions: hydrochloride; for solubility in aqueous buffer (pH 1): aqueous buffer solution pH 1, 20 min equilibration at 20° C.; for solubility in water: 20 min equilibration at 20° C.
Description: The solubility of polymorphs A, B, and E measured after 20 min equilibration at 20° C. in either water or aqueous buffer solution (pH 1) are compiled the following table.: […]

[2] = polymorphs described in WO 01/34574; cited from earlier work
[3] = Thermodynamic stability (melting point, heat of solution, equilibration experiments in suspension); type: physicochemical; conditions: comparison of polymorphs E, A and B; hydrochloride
Description: The thermodynamic stability of the individual crystalline polymorphs E, A and B of [6,7-Bis(2-methoxy-ethoxy)-quinazolin-4-yl]-(3-ethynyl-phenyl)amine hydrochloride were measured according to methods known in the art, e.g., from Byrn (Byrn, S. R., Pfeiffer, R. R., Stowell, J. G., “Solid-State Chemistry of Drugs”, SSCI Inc., West Lafayette, Ind., 1999).

[4] = Dissolution rate; type: physicochemical; conditions: compared with polymorph B
[5] = polymorphs described in WO 01/34574; cited from earlier work; remark: listed apart in the source
[6] = polymorphs described in WO 01/34574; cited from earlier work; remark: listed apart in the source

Compound	solubility in aqueous buffer (pH 1) [1] [%]	solubility in water [1] [%]	thermodynamic stability [2]	thermodynamic stability [3]	dissolution rate [4]	solubility [5]	dissolution rate [6]
C#Cc1cccc(Nc2ncnc3cc(OCCOC)c(OCCOC)cc23)c1.Cl [polymorph B, [6,7-Bis(2-methoxy-ethoxy)-quinazolin-4-yl]-(3-ethynyl-phenyl)amine hydrochloride]	0.003	0.098	thermodynamically more stable than polymorph A	more stable than polymorphs E and A	–	–	–
C#Cc1cccc(Nc2ncnc3cc(OCCOC)c(OCCOC)cc23)c1.Cl [polymorph E, [6,7-Bis(2-methoxy-ethoxy)-quinazolin-4-yl]-(3-ethynyl-phenyl)amine hydrochloride]	0.011	0.191	–	thermodynamically more stable than polymorph A	better solubility and dissolution rate than the known polymorph B	–	–
C#Cc1cccc(Nc2ncnc3cc(OCCOC)c(OCCOC)cc23)c1.Cl [polymorph A, [6,7-Bis(2-methoxy-ethoxy)-quinazolin-4-yl]-(3-ethynyl-phenyl)amine hydrochloride]	0.017	0.194	–	–	–	better solubility and dissolution rate than polymorph B	better solubility and dissolution rate than polymorph B
